According to the CheMixHub viscosity set:
Several values for one entry are separate records, joined by “and”; a condition that tells them apart may be missing. Identical values can stand only once. ± gives the uncertainty stated by the source.

Assay: xn = mol fraction of the nth substance listed

CC(C)C[C@H](N)C(=O)O + O
viscosity (293.15 K, 100 kPa, x1 = 0.000274): 1.013 ± 0.061 mPa·s | viscosity (293.15 K, 100 kPa, x1 = 0.000645): 1.038 ± 0.12 mPa·s | viscosity (293.15 K, 100 kPa, x1 = 0.000947): 1.055 ± 0.12 mPa·s | viscosity (293.15 K, 100 kPa, x1 = 0.00132): 1.076 ± 0.12 mPa·s | viscosity (293.15 K, 100 kPa, x1 = 0.00136): 1.04 ± 0.061 mPa·s | viscosity (293.15 K, 100 kPa, x1 = 0.00153): 1.044 ± 0.061 mPa·s | viscosity (293.15 K, 100 kPa, x1 = 0.00162): 1.093 ± 0.12 mPa·s | viscosity (293.15 K, 100 kPa, x1 = 0.00172): 1.048 ± 0.061 mPa·s | viscosity (293.15 K, 100 kPa, x1 = 0.002001): 1.114 ± 0.12 mPa·s | viscosity (293.15 K, 100 kPa, x1 = 0.00234): 1.133 ± 0.12 mPa·s | viscosity (298.15 K, 100 kPa, x1 = 0.000274): 0.9 ± 0.06 mPa·s | viscosity (298.15 K, 100 kPa, x1 = 0.000292): 0.8985 ± 0.12 mPa·s | viscosity (298.15 K, 100 kPa, x1 = 0.000459): 0.905 ± 0.06 mPa·s | viscosity (298.15 K, 100 kPa, x1 = 0.000806): 0.913 ± 0.06 mPa·s | viscosity (298.15 K, 100 kPa, x1 = 0.000995): 0.917 ± 0.06 mPa·s | viscosity (298.15 K, 100 kPa, x1 = 0.00117): 0.921 ± 0.06 mPa·s | viscosity (298.15 K, 100 kPa, x1 = 0.00132): 0.9262 ± 0.12 mPa·s | viscosity (298.15 K, 100 kPa, x1 = 0.00136): 0.925 ± 0.06 mPa·s | viscosity (298.15 K, 100 kPa, x1 = 0.00153): 0.929 ± 0.06 mPa·s | viscosity (298.15 K, 100 kPa, x1 = 0.00162): 0.9344 ± 0.12 mPa·s | viscosity (298.15 K, 100 kPa, x1 = 0.00172): 0.933 ± 0.061 mPa·s | viscosity (298.15 K, 100 kPa, x1 = 0.002001): 0.9447 ± 0.12 mPa·s | viscosity (298.15 K, 100 kPa, x1 = 0.00234): 0.9538 ± 0.12 mPa·s | viscosity (303.15 K, 100 kPa, x1 = 0.000274): 0.807 ± 0.06 mPa·s | viscosity (303.15 K, 100 kPa, x1 = 0.000292): 0.8043 ± 0.12 mPa·s | viscosity (303.15 K, 100 kPa, x1 = 0.000459): 0.811 ± 0.06 mPa·s | viscosity (303.15 K, 100 kPa, x1 = 0.000632): 0.815 ± 0.06 mPa·s | viscosity (303.15 K, 100 kPa, x1 = 0.000645): 0.8124 ± 0.12 mPa·s | viscosity (303.15 K, 100 kPa, x1 = 0.000806): 0.819 ± 0.06 mPa·s | viscosity (303.15 K, 100 kPa, x1 = 0.000947): 0.8194 ± 0.12 mPa·s | viscosity (303.15 K, 100 kPa, x1 = 0.000995): 0.823 ± 0.06 mPa·s | viscosity (303.15 K, 100 kPa, x1 = 0.00117): 0.826 ± 0.06 mPa·s | viscosity (303.15 K, 100 kPa, x1 = 0.00132): 0.828 ± 0.12 mPa·s | viscosity (303.15 K, 100 kPa, x1 = 0.00136): 0.83 ± 0.06 mPa·s | viscosity (303.15 K, 100 kPa, x1 = 0.00153): 0.834 ± 0.06 mPa·s | viscosity (303.15 K, 100 kPa, x1 = 0.00162): 0.8351 ± 0.12 mPa·s | viscosity (303.15 K, 100 kPa, x1 = 0.00172): 0.838 ± 0.06 mPa·s | viscosity (303.15 K, 100 kPa, x1 = 0.002001): 0.8439 ± 0.12 mPa·s | viscosity (303.15 K, 100 kPa, x1 = 0.00234): 0.8517 ± 0.12 mPa·s | viscosity (303.15 K, 101 kPa, x1 = 0.0004): 0.804 ± 0.007 mPa·s | viscosity (303.15 K, 101 kPa, x1 = 0.0007): 0.809 ± 0.007 mPa·s | viscosity (303.15 K, 101 kPa, x1 = 0.001): 0.817 ± 0.007 mPa·s and 0.827 ± 0.008 mPa·s | viscosity (303.15 K, 101 kPa, x1 = 0.0018): 0.834 ± 0.008 mPa·s | viscosity (305.15 K, 101 kPa, x1 = 0.0003598): 0.7908 ± 0.0051 mPa·s | viscosity (305.15 K, 101 kPa, x1 = 0.0007199): 0.7974 ± 0.0052 mPa·s | viscosity (305.15 K, 101 kPa, x1 = 0.00108): 0.8054 ± 0.0052 mPa·s | viscosity (305.15 K, 101 kPa, x1 = 0.001439): 0.8126 ± 0.0052 mPa·s | viscosity (305.15 K, 101 kPa, x1 = 0.001798): 0.8203 ± 0.0053 mPa·s | viscosity (305.15 K, 101 kPa, x1 = 0.002157): 0.8283 ± 0.0053 mPa·s | viscosity (308.15 K, 100 kPa, x1 = 0.000274): 0.729 ± 0.06 mPa·s | viscosity (308.15 K, 100 kPa, x1 = 0.000292): 0.7252 ± 0.12 mPa·s | viscosity (308.15 K, 100 kPa, x1 = 0.000632): 0.736 ± 0.06 mPa·s | viscosity (308.15 K, 100 kPa, x1 = 0.000645): 0.7323 ± 0.12 mPa·s | viscosity (308.15 K, 100 kPa, x1 = 0.000806): 0.74 ± 0.06 mPa·s | viscosity (308.15 K, 100 kPa, x1 = 0.000947): 0.7384 ± 0.12 mPa·s | viscosity (308.15 K, 100 kPa, x1 = 0.000995): 0.744 ± 0.06 mPa·s | viscosity (308.15 K, 100 kPa, x1 = 0.00117): 0.747 ± 0.06 mPa·s | viscosity (308.15 K, 100 kPa, x1 = 0.00132): 0.7458 ± 0.12 mPa·s | viscosity (308.15 K, 100 kPa, x1 = 0.00153): 0.755 ± 0.06 mPa·s | viscosity (308.15 K, 100 kPa, x1 = 0.00162): 0.752 ± 0.12 mPa·s | viscosity (308.15 K, 100 kPa, x1 = 0.00172): 0.758 ± 0.06 mPa·s | viscosity (308.15 K, 100 kPa, x1 = 0.002001): 0.7597 ± 0.12 mPa·s | viscosity (308.15 K, 100 kPa, x1 = 0.00234): 0.7665 ± 0.12 mPa·s | viscosity (308.15 K, 101 kPa, x1 = 0.0007): 0.731 ± 0.007 mPa·s | viscosity (308.15 K, 101 kPa, x1 = 0.001): 0.739 ± 0.007 mPa·s and 0.746 ± 0.007 mPa·s | viscosity (308.15 K, 101 kPa, x1 = 0.0018): 0.753 ± 0.007 mPa·s | viscosity (310.15 K, 101 kPa, x1 = 0.0003598): 0.709 ± 0.0047 mPa·s | viscosity (310.15 K, 101 kPa, x1 = 0.0007199): 0.7151 ± 0.0047 mPa·s | viscosity (310.15 K, 101 kPa, x1 = 0.00108): 0.7218 ± 0.0048 mPa·s | viscosity (310.15 K, 101 kPa, x1 = 0.001439): 0.7272 ± 0.0048 mPa·s | viscosity (310.15 K, 101 kPa, x1 = 0.001798): 0.7334 ± 0.0048 mPa·s | viscosity (310.15 K, 101 kPa, x1 = 0.002157): 0.7401 ± 0.0049 mPa·s | viscosity (313.15 K, 100 kPa, x1 = 0.000274): 0.663 ± 0.06 mPa·s | viscosity (313.15 K, 100 kPa, x1 = 0.000292): 0.6581 ± 0.12 mPa·s | viscosity (313.15 K, 100 kPa, x1 = 0.000459): 0.667 ± 0.06 mPa·s | viscosity (313.15 K, 100 kPa, x1 = 0.000632): 0.67 ± 0.06 mPa·s | viscosity (313.15 K, 100 kPa, x1 = 0.000645): 0.6643 ± 0.12 mPa·s | viscosity (313.15 K, 100 kPa, x1 = 0.000806): 0.674 ± 0.06 mPa·s | viscosity (313.15 K, 100 kPa, x1 = 0.000947): 0.6696 ± 0.12 mPa·s | viscosity (313.15 K, 100 kPa, x1 = 0.00132): 0.676 ± 0.12 mPa·s | viscosity (313.15 K, 100 kPa, x1 = 0.00162): 0.6814 ± 0.12 mPa·s | viscosity (313.15 K, 100 kPa, x1 = 0.002001): 0.688 ± 0.12 mPa·s | viscosity (313.15 K, 100 kPa, x1 = 0.00234): 0.694 ± 0.12 mPa·s | viscosity (313.15 K, 101 kPa, x1 = 0.0004): 0.658 ± 0.006 mPa·s | viscosity (313.15 K, 101 kPa, x1 = 0.0007): 0.663 ± 0.006 mPa·s | viscosity (313.15 K, 101 kPa, x1 = 0.001): 0.669 ± 0.006 mPa·s and 0.677 ± 0.006 mPa·s | viscosity (313.15 K, 101 kPa, x1 = 0.0018): 0.682 ± 0.006 mPa·s | viscosity (315.15 K, 101 kPa, x1 = 0.0003598): 0.6544 ± 0.0045 mPa·s | viscosity (315.15 K, 101 kPa, x1 = 0.0007199): 0.6599 ± 0.0045 mPa·s | viscosity (315.15 K, 101 kPa, x1 = 0.00108): 0.6653 ± 0.0045 mPa·s | viscosity (315.15 K, 101 kPa, x1 = 0.001439): 0.6699 ± 0.0045 mPa·s | viscosity (315.15 K, 101 kPa, x1 = 0.001798): 0.6752 ± 0.0046 mPa·s | viscosity (315.15 K, 101 kPa, x1 = 0.002157): 0.6803 ± 0.0046 mPa·s | viscosity (318.15 K, 101 kPa, x1 = 0.0007): 0.605 ± 0.006 mPa·s | viscosity (318.15 K, 101 kPa, x1 = 0.001): 0.611 ± 0.006 mPa·s and 0.618 ± 0.006 mPa·s | viscosity (318.15 K, 101 kPa, x1 = 0.0018): 0.622 ± 0.006 mPa·s
